Laboratory results published in patent publication US10159640B2, “Prebiotic oral care compositions containing amino acids” (COLGATE-PALMOLIVE COMPANY, priority 2013, dated 2018).

How the values were obtained:
Experiment in all cases: Extent of growth, growth curves in BHI
Format in all cases: cell-based
Conditions in all cases: control = 1
[1] = test system: Streptococcus mutans
Experimental: (§1) The extent of growth of the tested bacteria in response to selected compounds (Met-Pro, Phe-Glu) was investigated by setting up growth curves in a nutritionally rich medium (brain heart infusion broth (BHI), Oxoid), over 48 hours. Late exponential growth phase liquid cultures were prepared by transferring the respective bacterium from blood agar plates to BHI and overnight incubation at 37° C. in an anaerobic atmosphere for A. viscosus, V. parvula, F. nucleatum, P. gingivalis, P. intermedia, T. forsythia, A. naeslundii, and C. sputigena, and in a 5% CO2 environment for S. salivarius, S. sanguinis, S. mitis, A. actinomycetemcomitans, S. mutans, S. sobrinus and S. gordonii. Overnight cultures were transferred to BHI and adjusted to a concentration of 1×10^7 CFU/ml (colony forming units per ml) by measuring the optical density at 600 nm (OD600) (BioRad SmartSpec 3000). For each strain, 200 μl of the bacterial suspension was added to a 96-well plate containing 20 μl of the respective di-peptides. Final concentrations of the di-peptides were set to 5, 10, 20 and 25 μmol/ml. […] Plates were incubated as previously described.
(§2) For each combination of bacterium/dipeptide, and for each of their respective controls (i.e. the particular bacterium in the nutritionally rich medium with no dipeptide), the optical density was measured at 630 nm (OD630) at 0 h, 24 h and 48 h (Thermo Scientific Multiskan Ascent). Additionally, the OD630 for combinations of bacterium/dipeptide grown in a 5% CO2 environment were also measured every hour between 0 h and 9 h.
(§3) The experiment was carried out on three different days (thus providing 3 biological replicas) and on each day the experiment was carried out in quadruple (thus providing 4 technical replicas) for each combination of bacterium with dipeptide and for each control. For each day and for each combination, the average (mean) of the values obtained (as detailed above) for the four technical replicas was calculated to provide a single value for each combination on each day. The values shown in Tables 5 to 6, below, are the average (mean) of the three single values obtained for each combination of bacterium with dipeptide.

[2] = test system: Porphyromonas gingivalis
Experimental: as §1, §2, §3

[3] = test system: Streptococcus sanguinis
Experimental: as §1, §2, §3

[4] = test system: Prevotella intermedia
Experimental: as §1, §2, §3

[5] = test system: Capnocytophaga sputigena
Experimental: as §1, §2, §3

[6] = test system: Tannerella forsythia
Experimental: as §1, §2, §3

[7] = test system: Actinomyces viscosus
Experimental: as §1, §2, §3

[8] = test system: Aggregatibacter actinomycetemcomitans
Experimental: as §1, §2, §3

[9] = test system: Streptococcus sobrinus
Experimental: as §1, §2, §3

[10] = test system: Streptococcus gordonii
Experimental: as §1, §2, §3

[11] = test system: Veillonella parvula
Experimental: as §1, §2, §3

[12] = test system: Streptococcus salivarius
Experimental: as §1, §2, §3

[13] = test system: Streptococcus mitis
Experimental: as §1, §2, §3

[14] = test system: Actinomyces naeslundii
Experimental: as §1, §2, §3

[15] = test system: Fusobacterium nucleatum
Experimental: as §1, §2, §3

Phe-Glu
extent of growth: maximal OD630 over 48 hr divided by maximal OD of control ([1]; 5 μmol/ml): 0.9703 | extent of growth: maximal OD630 over 48 hr divided by maximal OD of control ([1]; 10 μmol/ml): 0.9003 | extent of growth: maximal OD630 over 48 hr divided by maximal OD of control ([1]; 20 μmol/ml): 0.4212 | extent of growth: maximal OD630 over 48 hr divided by maximal OD of control ([1]; 25 μmol/ml): 0.2492 | extent of growth: maximal OD630 over 48 hr divided by maximal OD of control ([2]; 5 μmol/ml): 0.8526 | extent of growth: maximal OD630 over 48 hr divided by maximal OD of control ([2]; 10 μmol/ml): 0.9810 | extent of growth: maximal OD630 over 48 hr divided by maximal OD of control ([2]; 20 μmol/ml): 0.4181 | extent of growth: maximal OD630 over 48 hr divided by maximal OD of control ([2]; 25 μmol/ml): 0.4208 | extent of growth: maximal OD630 over 48 hr divided by maximal OD of control ([3]; 5 μmol/ml): 0.8140 | extent of growth: maximal OD630 over 48 hr divided by maximal OD of control ([3]; 10 μmol/ml): 0.5644 | extent of growth: maximal OD630 over 48 hr divided by maximal OD of control ([3]; 20 μmol/ml): 0.2451 | extent of growth: maximal OD630 over 48 hr divided by maximal OD of control ([3]; 25 μmol/ml): 0.2334 | extent of growth: maximal OD630 over 48 hr divided by maximal OD of control ([4]; 5 μmol/ml): 1.1149 | extent of growth: maximal OD630 over 48 hr divided by maximal OD of control ([4]; 10 μmol/ml): 0.2856 | extent of growth: maximal OD630 over 48 hr divided by maximal OD of control ([4]; 20 μmol/ml): 0.2094 | extent of growth: maximal OD630 over 48 hr divided by maximal OD of control ([4]; 25 μmol/ml): 0.2224 | extent of growth: maximal OD630 over 48 hr divided by maximal OD of control ([5]; 5 μmol/ml): 0.9921 | extent of growth: maximal OD630 over 48 hr divided by maximal OD of control ([5]; 10 μmol/ml): 0.9872 | extent of growth: maximal OD630 over 48 hr divided by maximal OD of control ([5]; 20 μmol/ml): 1.0801 | extent of growth: maximal OD630 over 48 hr divided by maximal OD of control ([5]; 25 μmol/ml): 1.1804 | extent of growth: maximal OD630 over 48 hr divided by maximal OD of control ([6]; 5 μmol/ml): 1.0118 | extent of growth: maximal OD630 over 48 hr divided by maximal OD of control ([6]; 10 μmol/ml): 0.7490 | extent of growth: maximal OD630 over 48 hr divided by maximal OD of control ([6]; 20 μmol/ml): 0.7707 | extent of growth: maximal OD630 over 48 hr divided by maximal OD of control ([6]; 25 μmol/ml): 0.8302 | extent of growth: maximal OD630 over 48 hr divided by maximal OD of control ([7]; 5 μmol/ml): 0.5112 | extent of growth: maximal OD630 over 48 hr divided by maximal OD of control ([7]; 10 μmol/ml): 0.3845 | extent of growth: maximal OD630 over 48 hr divided by maximal OD of control ([7]; 20 μmol/ml): 0.1598 | extent of growth: maximal OD630 over 48 hr divided by maximal OD of control ([7]; 25 μmol/ml): 0.1563 | extent of growth: maximal OD630 over 48 hr divided by maximal OD of control ([8]; 5 μmol/ml): 0.5643 | extent of growth: maximal OD630 over 48 hr divided by maximal OD of control ([8]; 10 μmol/ml): 0.3227 | extent of growth: maximal OD630 over 48 hr divided by maximal OD of control ([8]; 20 μmol/ml): 0.2201 | extent of growth: maximal OD630 over 48 hr divided by maximal OD of control ([8]; 25 μmol/ml): 0.2320 | extent of growth: maximal OD630 over 48 hr divided by maximal OD of control ([9]; 5 μmol/ml): 1.0790 | extent of growth: maximal OD630 over 48 hr divided by maximal OD of control ([9]; 10 μmol/ml): 0.9900 | extent of growth: maximal OD630 over 48 hr divided by maximal OD of control ([9]; 20 μmol/ml): 0.5832 | extent of growth: maximal OD630 over 48 hr divided by maximal OD of control ([9]; 25 μmol/ml): 0.4315 | extent of growth: maximal OD630 over 48 hr divided by maximal OD of control ([10]; 5 μmol/ml): 0.9682 | extent of growth: maximal OD630 over 48 hr divided by maximal OD of control ([10]; 10 μmol/ml): 0.8613 | extent of growth: maximal OD630 over 48 hr divided by maximal OD of control ([10]; 20 μmol/ml): 0.3992 | extent of growth: maximal OD630 over 48 hr divided by maximal OD of control ([10]; 25 μmol/ml): 0.2908 | extent of growth: maximal OD630 over 48 hr divided by maximal OD of control ([11]; 5 μmol/ml): 1.0286 | extent of growth: maximal OD630 over 48 hr divided by maximal OD of control ([11]; 10 μmol/ml): 1.0199 | extent of growth: maximal OD630 over 48 hr divided by maximal OD of control ([11]; 20 μmol/ml): 0.9533 | extent of growth: maximal OD630 over 48 hr divided by maximal OD of control ([11]; 25 μmol/ml): 1.0475 | extent of growth: maximal OD630 over 48 hr divided by maximal OD of control ([12]; 5 μmol/ml): 0.9916 | extent of growth: maximal OD630 over 48 hr divided by maximal OD of control ([12]; 10 μmol/ml): 0.8123 | extent of growth: maximal OD630 over 48 hr divided by maximal OD of control ([12]; 20 μmol/ml): 0.2953 | extent of growth: maximal OD630 over 48 hr divided by maximal OD of control ([12]; 25 μmol/ml): 0.2322 | extent of growth: maximal OD630 over 48 hr divided by maximal OD of control ([13]; 5 μmol/ml): 1.9957 | extent of growth: maximal OD630 over 48 hr divided by maximal OD of control ([13]; 10 μmol/ml): 2.0642 | extent of growth: maximal OD630 over 48 hr divided by maximal OD of control ([13]; 20 μmol/ml): 0.3250 | extent of growth: maximal OD630 over 48 hr divided by maximal OD of control ([13]; 25 μmol/ml): 0.4367 | extent of growth: maximal OD630 over 48 hr divided by maximal OD of control ([14]; 5 μmol/ml): 0.7791 | extent of growth: maximal OD630 over 48 hr divided by maximal OD of control ([14]; 10 μmol/ml): 0.4962 | extent of growth: maximal OD630 over 48 hr divided by maximal OD of control ([14]; 20 μmol/ml): 0.1648 | extent of growth: maximal OD630 over 48 hr divided by maximal OD of control ([14]; 25 μmol/ml): 0.1653 | extent of growth: maximal OD630 over 48 hr divided by maximal OD of control ([15]; 5 μmol/ml): 0.7990 | extent of growth: maximal OD630 over 48 hr divided by maximal OD of control ([15]; 10 μmol/ml): 0.8493 | extent of growth: maximal OD630 over 48 hr divided by maximal OD of control ([15]; 20 μmol/ml): 0.2311 | extent of growth: maximal OD630 over 48 hr divided by maximal OD of control ([15]; 25 μmol/ml): 0.2402
